Measurements as given in patent US20260098053A1, “COMPOSITIONS AND METHODS FOR TREATING CNS DISORDERS” (SAGE THERAPEUTICS, INC., priority 2019, published 2026).

biological target: [35S]-TBPS binding, rat brain cortical membranes; experiment: Steroid inhibition of [35S]-TBPS binding; conditions: Table 4, 3 nM [35S]-TBPS, in the presence of 5 mM GABA, read-out: TBPS IC50
Method: [35S]-t-Butylbicyclophosphorothionate (TBPS) binding assays using rat brain cortical membranes in the presence of 5 mM GABA has been described (Gee et al, J. Pharmacol. Exp. Ther. 1987, 241, 346-353; Hawkinson et al, Mol. Pharmacol. 1994, 46, 977-985; Lewin, A. H et al., Mol. Pharmacol. 1989, 35, 189-194).
Briefly, cortices are rapidly removed following decapitation of carbon dioxide-anesthetized Sprague-Dawley rats (200-250 g). The cortices are homogenized in 10 volumes of ice-cold 0.32 M sucrose using a glass/teflon homogenizer and centrifuged at 1500×g for 10 min at 4° C. The resultant supernatants are centrifuged at 10,000×g for 20 min at 4° C. to obtain the P2 pellets. The P2 pellets are resuspended in 200 mM NaCl/50 mM Na—K phosphate pH 7.4 buffer and centrifuged at 10,000×g for 10 min at 4° C. This washing procedure is repeated twice and the pellets are resuspended in 10 volumes of buffer. Aliquots ([…]) of the membrane suspensions are incubated with 3 nM [^35S]-TBPS and […] aliquots of test drug dissolved in dimethyl sulfoxide (DMSO) (final 0.5%) in the presence of 5 mM GABA. The incubation is brought to a final volume of 1.0 mL with buffer. Nonspecific binding is determined in the presence of […] and ranged from 15 to 25%. Following a 90 min incubation at room temp, the assays are terminated by filtration through glass fiber filters (Schleicher and Schuell No. 32) using a cell harvester (Brandel) and rinsed three times with ice-cold buffer. Filter bound radioactivity is measured by liquid scintillation spectrometry. Non-linear curve fitting of the overall data for each drug averaged for each concentration is done using Prism (GraphPad). […] The concentration of test compound producing 50% inhibition (IC50) of specific binding and the maximal extent of inhibition (Imax) are determined for the individual experiments with the same model used for the overall data and then the means±SEM.s of the individual experiments are calculated.
Various compounds are or can be screened to determine their potential as modulators of [^35S]-TBPS binding in vitro. These assays are or can be performed in accordance with the above

Q: For CC[C@]12CCCC(C)(O)C[C@H]1CC[C@H]1[C@@H]3CC[C@H](C(=O)Cn4cc(C#N)cn4)[C@@]3(C)CC[C@@H]12 (stereo in doubt) [Example 20, 1-(2-((1S,3aS,3bS,5aR,7S,10aS,10bS,12aS)-10a-ethyl-7-hydroxy-7,12a-dimethyloctadecahydrocyclohepta[a]cyclopenta[f]naphthalen-1-yl)-2-oxoethyl)-1H-pyrazole-4-carbonitrile], which IC50 is on record?
A: The IC50 was less than 100 nM.

Q: Which IC50 does the source give for CC(=O)[C@H]1CCC[C@H]2[C@@H]3CC[C@@H]4CC[C@](C)(O)CC[C@@H]4[C@H]3CC[C@]12C [Example 1, 1-((1S,4aS,4bR,6aR,9S,11aS,11bR,13aS)-9-hydroxy-9,13a-dimethyloctadecahydro-1H-cyclohepta[a]phenanthren-1-yl)ethan-1-one] here?
A: Its IC50 is greater than 1000 nM.

Q: For C[C@]1(O)CC[C@H]2CC[C@@H]3[C@H](CC[C@]4(C)[C@H](C(=O)Cn5cc(C#N)cn5)CCC[C@@H]34)[C@H]2CC1 [Example 3], which IC50 is on record?
A: Its IC50 is greater than 1000 nM.

Q: C[C@]1(O)CC[C@H]2CC[C@@H]3[C@H](CC[C@]4(C)[C@@H](C(=O)Cn5cc(C#N)cn5)CCC[C@@H]34)[C@H]2CC1 [Example 4, 1-(2-((1S,4aS,4bR,6aR,9S,11aS,11bR,13aS)-9-hydroxy-9,13a-dimethyloctadecahydro-1H-cyclohepta[a]phenanthren-1-yl)-2-oxoethyl)-1H-pyrazole-4-carbonitrile] was tested. Which IC50 did it give?
A: The IC50 was 100 to 1000 nM.

Q: For CC(=O)[C@H]1CCC[C@H]2[C@@H]3CC[C@@H]4C[C@](C)(O)CCC[C@@H]4[C@H]3CC[C@]12C [Example 9, 1-((1S,4aS,4bR,6aR,8R,11aS,11bR,13aS)-8-hydroxy-8,13a-dimethyloctadecahydro-1H-cyclohepta[a]phenanthren-1-yl)ethan-1-one], which IC50 is on record?
A: Its IC50 is less than 100 nM.

Q: For C[C@@]1(O)CCC[C@H]2[C@H](CC[C@@H]3[C@@H]2CC[C@]2(C)[C@@H](C(=O)Cn4cc(C#N)cn4)CCC[C@@H]32)C1 [Example 10], which IC50 is on record?
A: The IC50 was less than 100 nM.

Q: Which IC50 does the source give for Cc1nnn(CC(=O)[C@H]2CCC[C@H]3[C@@H]4CC[C@@H]5C[C@](C)(O)CCC[C@@H]5[C@H]4CC[C@]23C)n1 [Example 11, 1-((1S,4aS,4bR,6aR,8R,11aS,11bR,13aS)-8-hydroxy-8,13a-dimethyloctadecahydro-1H-cyclohepta[a]phenanthren-1-yl)-2-(5-methyl-2H-tetrazol-2-yl)ethan-1-one] here?
A: The IC50 was less than 100 nM.

Q: Which IC50 does the source give for Cc1nnnn1CC(=O)[C@H]1CCC[C@H]2[C@@H]3CC[C@@H]4C[C@](C)(O)CCC[C@@H]4[C@H]3CC[C@]12C [Example 12, 1-((1S,4aS,4bR,6aR,8R,11aS,11bR,13aS)-8-hydroxy-8,13a-dimethyloctadecahydro-1H-cyclohepta[a]phenanthren-1-yl)-2-(5-methyl-1H-tetrazol-1-yl)ethan-1-one] here?
A: The IC50 was less than 100 nM.

Q: Which IC50 does the source give for CC[C@@]1(O)CCC[C@H]2[C@H](CC[C@@H]3[C@@H]2CC[C@]2(C)[C@@H](C(C)=O)CCC[C@@H]32)C1 [Example 13, 1-((1S,4aS,4bR,6aR,8R,11aS,11bR,13aS)-8-ethyl-8-hydroxy-13a-methyloctadecahydro-1H-cyclohepta[a]phenanthren-1-yl)ethan-1-one] here?
A: Its IC50 is 100 to 1000 nM.

Q: CC[C@@]1(O)CCC[C@H]2[C@H](CC[C@@H]3[C@@H]2CC[C@]2(C)[C@@H](C(=O)Cn4cc(C#N)cn4)CCC[C@@H]32)C1 [Example 14, 1-(2-((1S,4aS,4bR,6aR,8R,11aS,11bR,13aS)-8-ethyl-8-hydroxy-13a-methyloctadecahydro-1H-cyclohepta[a]phenanthren-1-yl)-2-oxoethyl)-1H-pyrazole-4-carbonitrile] was tested. Which IC50 did it give?
A: Its IC50 is 100 to 1000 nM.

Q: For CC(=O)[C@H]1CCC[C@H]2[C@@H]3CC[C@@H]4C[C@](C)(O)CCC[C@]4(C)[C@H]3CC[C@]12C [Example 15, 1-((1S,4aS,4bR,6aR,8R,11aS,11bS,13aS)-8-hydroxy-8,11a,13a-trimethyloctadecahydro-1H-cyclohepta[a]phenanthren-1-yl)ethan-1-one], which IC50 is on record?
A: Its IC50 is less than 100 nM.

Q: Which IC50 does the source give for C[C@@]1(O)CCC[C@@]2(C)[C@H](CC[C@@H]3[C@@H]2CC[C@]2(C)[C@H](C(=O)Cn4cc(C#N)cn4)CCC[C@@H]32)C1 [Example 17, 1-(2-((1R,4aS,4bR,6aR,8R,11aS,11bS,13aS)-8-hydroxy-8,11a,13a-trimethyloctadecahydro-1H-cyclohepta[a]phenanthren-1-yl)-2-oxoethyl)-1H-pyrazole-4-carbonitrile] here?
A: The IC50 was greater than 1000 nM.

Q: For C[C@@]1(O)CCC[C@@]2(C)[C@H](CC[C@@H]3[C@@H]2CC[C@]2(C)[C@@H](C(=O)CCn4cc(C#N)cn4)CCC[C@@H]32)C1 [Example 18, 1-(3-((1S,4aS,4bR,6aR,8R,11aS,11bS,13aS)-8-hydroxy-8,11a,13a-trimethyloctadecahydro-1H-cyclohepta[a]phenanthren-1-yl)-3-oxopropyl)-1H-pyrazole-4-carbonitrile], which IC50 is on record?
A: The IC50 was less than 100 nM.

Q: With CC[C@]12CC[C@@](C)(O)C[C@H]1CC[C@H]1[C@@H]3CCC[C@H](C(=O)Cn4cc(C#N)cn4)[C@@]3(C)CC[C@@H]12 [Example 19, 1-(2-((1S,4aS,4bS,6aR,8R,10aS,10bS,12aS)-10a-ethyl-8-hydroxy-8,12a-dimethyloctadecahydrochrysen-1-yl)-2-oxoethyl)-1H-pyrazole-4-carbonitrile] as the compound, how does the IC50 read?
A: The IC50 was less than 100 nM.

Q: For CC[C@]12CC[C@@](C)(O)C[C@H]1CC[C@H]1[C@@H]3CCCC[C@@H](C(=O)Cn4cc(C#N)cn4)[C@@]3(C)CC[C@@H]12 [Example 21], which IC50 is on record?
A: The IC50 was 100 to 1000 nM.

Q: Which IC50 does the source give for CC[C@]12CC[C@@](C)(O)C[C@H]1CC[C@H]1[C@@H]3CCCC[C@H](C(C)=O)[C@@]3(C)CC[C@@H]12 [Example 22] here?
A: The IC50 was less than 100 nM.

Q: CC[C@]12CC[C@@](C)(O)C[C@H]1CC[C@H]1[C@@H]3CCCC[C@@H](C(C)=O)[C@@]3(C)CC[C@@H]12 [Example 23, 1-((2R,4aS,4bS,6aS,7R,11aS,11bS,13aR)-4a-ethyl-2-hydroxy-2,6a-dimethyloctadecahydro-1H-cyclohepta[a]phenanthren-7-yl)ethanone] was tested. Which IC50 did it give?
A: The IC50 was 100 to 1000 nM.

Q: CC[C@]12CC[C@@](C)(O)C[C@H]1CC[C@H]1[C@@H]3CCCC[C@H](C(=O)Cn4cc(C#N)cn4)[C@@]3(C)CC[C@@H]12 [Example 24] was tested. Which IC50 did it give?
A: Its IC50 is less than 100 nM.

Q: CC[C@]12CC[C@@](C)(O)CC[C@H]1CC[C@H]1[C@@H]3CC[C@H](C(C)=O)[C@@]3(C)CC[C@@H]12 [Example 25, 1-((1S,3aS,3bS,5aR,8S,10aS,10bS,12aS)-10a-ethyl-8-hydroxy-8,12a-dimethyloctadecahydrocyclohepta[a]cyclopenta[f]naphthalen-1-yl)ethanone] was tested. Which IC50 did it give?
A: Its IC50 is 100 to 1000 nM.

Q: Which IC50 does the source give for CC[C@]12CC[C@@](C)(O)CC[C@H]1CC[C@H]1[C@@H]3CC[C@H](C(=O)Cn4cc(C#N)cn4)[C@@]3(C)CC[C@@H]12 [Example 26] here?
A: The IC50 was 100 to 1000 nM.

same assay, conditions: Table 5, 3 nM [35S]-TBPS, in the presence of 5 mM GABA, read-out: TBPS IC50

Q: C[C@@]1(O)CC[C@H]2[C@H](CC[C@@H]3[C@@H]2CC[C@H]2[C@H]3CC[C@H]2C(=O)Cn2cc(C#N)cn2)C1 (stereo in doubt) [Example 71] was tested. Which IC50 did it give?
A: Its IC50 is greater than 1000 nM.
